Laboratory results: ChEMBL document CHEMBL1201862, “PubChem BioAssay data set” (2004)
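Method: 48-hour compound exposure of cells in 96-well plates, five concentrations, linear interpolation of endpoints. At the GI50, growth is halved.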 The source made the active and inactive calls. Cut-off read from the data, not from the text of the source: active = GI50 up to about 1.1 µM and inactive = higher.

Legend:
Assay in all cases: DTP human tumour cell line panel, 48 h
RXF 631 = test system: RXF 631
XF498 = test system: XF498
KM-20L2 = test system: KM-20L2
DMS-273 = test system: DMS-273
M19-MEL = test system: M19-MEL
SNB-78 = test system: SNB-78
DLD-1 = test system: DLD-1
LXFL 529 = test system: LXFL 529
DMS-114 = test system: DMS-114

Row | Structure (SMILES) | GI50 (RXF 631) | GI50 (XF498) | GI50 (KM-20L2) | GI50 (DMS-273) | GI50 (M19-MEL) | GI50 (SNB-78) | GI50 (DLD-1) | GI50 (LXFL 529) | GI50 (DMS-114)
1 | C=C(C)C(=O)/N=C(\N)NC#N | > 100 µM (inactive) | 41.8 µM (inactive) | 105 µM (inactive) | 44 µM (inactive) | 23.6 µM (inactive) | 48.3 µM (inactive) | 68.9 µM (inactive) | 63.4 µM (inactive) | 30.5 µM (inactive)
2 | CCN(CC)CCNc1ccc2ncn3c4cc(O)ccc4c(=O)c1c23 | 2.1 µM (inactive) | 2.9 µM (inactive) | 3.7 µM (inactive) | 2.77 µM (inactive) | 3.94 µM (inactive) | 5.35 µM (inactive) | 3.76 µM (inactive) | 2.56 µM (inactive) | 4.29 µM (inactive)
3 | Cc1cc(C)c(-c2noc(-c3ccc(Cl)cc3)c2C2=NCCCN2)c(C)c1 | 25.1 µM (inactive) | 12.2 µM (inactive) | 21.9 µM (inactive) |  | 36.1 µM (inactive) | 14.8 µM (inactive) | 35.8 µM (inactive) | 32.2 µM (inactive) | 
4 | CC(C)(C)c1cc(C(O)(C(F)(F)F)C(F)(F)F)c2c(c1)C(C(F)(F)F)(C(F)(F)F)OC(C)(C(C)(C)C)N2 (stereo unspecified) |  | 1.63 µM (inactive) | 3.03 µM (inactive) | 3.06 µM (inactive) | 3.05 µM (inactive) | 5.87 µM (inactive) | 2.85 µM (inactive) | 2.96 µM (inactive) | 2.74 µM (inactive)
5 | c1cnc2c(c1)-n1cccc1C1(CCOCC1)NN2 |  | > 100 µM (inactive) | > 100 µM (inactive) | > 100 µM (inactive) | > 100 µM (inactive) |  | > 100 µM (inactive) | > 100 µM (inactive) | > 100 µM (inactive)
6 | O=C1CCCCCCC2=C1C(Sc1ccccc1)CC2 (stereo unspecified) |  |  | 41.6 µM (inactive) | 26.2 µM (inactive) | 50.2 µM (inactive) | > 100 µM (inactive) |  | 35.4 µM (inactive) | 23.7 µM (inactive)
7 | COC1/C=C\C=C(/C)C(=O)Nc2cc3nc4ccc(Br)cc4oc-3c(c2=O)CC(C)CC(OC)C(O)C(C)/C=C(\C)C1OC(N)=O (stereo unspecified) |  | < 0.0202 µM (active) | < 0.0181 µM (active) | < 0.0216 µM (active) | 0.0383 µM (active) | 0.998 µM (active) | 0.0447 µM (active) | < 0.0147 µM (active) | 0.0604 µM (active)
8 | CN1C(=O)CC2(C)c3cc(O)cc(Br)c3N(C)C12 (stereo unspecified) |  | > 100 µM (inactive) | > 100 µM (inactive) |  | > 100 µM (inactive) | > 100 µM (inactive) |  | > 100 µM (inactive) | > 100 µM (inactive)
9 | CC(=O)Nc1ccccc1S(=O)(=O)c1ccccc1 | > 100 µM (inactive) | 79.6 µM (inactive) | > 100 µM (inactive) | > 100 µM (inactive) | > 100 µM (inactive) | > 100 µM (inactive) | > 100 µM (inactive) | > 100 µM (inactive) | > 100 µM (inactive)
10 | O=C(CC1C(=O)Nc2ccccc2S1(=O)=O)Nc1cc(Cl)ccc1Cl (stereo unspecified) | 28.4 µM (inactive) | 14.1 µM (inactive) | 15.6 µM (inactive) |  | 16.2 µM (inactive) | 12.7 µM (inactive) | 15 µM (inactive) | 14.1 µM (inactive) | 12.5 µM (inactive)
11 | Cc1ccc(NC(=O)C2C(=O)N(c3ccc(C)cc3)C(=O)/C2=N\NC(N)=S)cc1 (stereo unspecified) |  | > 100 µM (inactive) | > 100 µM (inactive) | > 100 µM (inactive) | > 100 µM (inactive) | > 100 µM (inactive) |  | > 100 µM (inactive) | > 100 µM (inactive)
12 | CCCCCCCCCCCCC(Br)C(=O)SCCNC(=O)CCNC(=O)[C@@H](O)C(C)(C)COP(=O)(O)OP(=O)(O)OCC1OC(n2cnc3c(N)ncnc32)C(O)C1OP(=O)(O)O (stereo partly specified) |  | > 56.5 µM (inactive) | > 56.5 µM (inactive) | > 56.5 µM (inactive) | > 56.5 µM (inactive) | > 56.5 µM (inactive) | > 56.5 µM (inactive) | > 56.5 µM (inactive) | > 56.5 µM (inactive)
13 | CC12CO[C@@](C)(CC(S(=O)(=O)c3ccccc3)C1)O2 (stereo partly specified) |  |  | > 100 µM (inactive) | > 100 µM (inactive) | > 100 µM (inactive) | > 100 µM (inactive) | > 100 µM (inactive) | > 100 µM (inactive) | > 100 µM (inactive)
14 | C=C1C(=O)C23C(CC(OC(C)=O)C1[C@@H]2OC(C)=O)C1(C)C(OC(C)=O)CCC(C)(C)C1C[C@@H]3OC(C)=O (stereo partly specified) |  |  | 1.72 µM (inactive) | 1.68 µM (inactive) | 1.75 µM (inactive) | 1.53 µM (inactive) |  | 1.35 µM (inactive) | 1.14 µM (inactive)
15 | CSC[S+]([O-])C[C@H](CO)NC(=O)/C=C/c1c(C)[nH]c(=O)[nH]c1=O (stereo partly specified) | 2.58 µM (inactive) | 0.214 µM (active) | 0.979 µM (active) | 1.43 µM (inactive) | 0.718 µM (active) | 0.318 µM (active) | 1.6 µM (inactive) | 1.96 µM (inactive) | 0.757 µM (active)
16 | COC(=O)[C@@]12OC[C@]34[C@H]([C@@H](O)[C@@H]1O)[C@@]1(C)CC(=O)C(O)=C(C)[C@@H]1C[C@H]3OC(=O)[C@H](OC(=O)/C=C(\C)C(C)C)[C@@H]24 [BRUCEANTIN] | 0.000314 µM (active) | 0.02 µM (active) | 0.02 µM (active) |  | 0.02 µM (active) | 0.02 µM (active) | 0.02 µM (active) | 3.5e-05 µM (active) | 
